Here are results for one compound from article PMC10111022, “Comparison of pharmacological inhibitors of lysine-specific demethylase 1 in glioblastoma stem cells reveals inhibitor-specific efficacy profiles” (Frontiers in Neurology, 2023).

As a reminder, the IC50 is the concentration at which inhibition is half-maximal.

A value given as a limit tells only on which side of the number the result lay.

For one test, the system named is brain tissue. Nature of the test: qPCR of resistance-related genes in brain tissue of treated xenograft mouse. It is filed as in vivo. As to conditions: treated mouse vs control mouse after succumbing to tumor burden. The method, then: Total RNA was extracted using RNeasy Plus Mini Kit (Qiagen; Hilden, Germany) following the manufacturer’s protocol. cDNA was synthesized with the iScript cDNA synthesis kit (Bio-Rad; Hercules, CA), qPCR was performed using Forget-Me-Not EvaGreen qPCR kit (Biotium; Fremont, CA), and samples were analyzed with the LightCycler96 (Roche; Basel, Switzerland). Cq values were normalized to PPIA and reported as relative fold change from untreated control.
We then measured the gene expression of the candidate gene set in brain tissue of a mouse treated with GSK-LSD1 compared to a control mouse after they succumbed to tumor burden. […] Finally, we assessed the presence of this gene set in patient data acquired from TCGA ([17], [18]). In a dataset of glioblastoma patient samples, LSD1 expression has an inverse relationship with the genes that correlate with resistance (Figures 6H,I). We then assessed the correlation between resistance related gene expression and GBM subtypes using TCGA (Figure 6J). From this analysis, we find that the mesenchymal subtype has an increased expression of HKDC1 and RAB3IL1 compared to classical and proneural. […] Overall, our established gene set may predict resistance to LSD1 inhibition and is concordant across in vitro experiments, in vivo studies, and is expressed in a LSD1 dependent manner in GBM patients.
(In qPCR the cycle at which signal appears reflects the starting amount.)

A further test deals with MDA-GSC 20. Nature of the test: Cell viability dose response (IC50), MDA-GSC 20. Format: cell-based. As to conditions: Homo sapiens, mean of three independent experiments. The method, then:
MDA-GSCs were plated at 50,000 cells/well into 12-well plates at and allowed to grow for 5 days until neurospheres were formed. The cells were then treated with either TCP, GSK-LSD1, or RN-1 at various concentrations for 5 days. Next, the cells were collected and neurospheres were dissociated with Accutase (BioLegend; San Diego, CA). Cell viability was determined using a trypan dye exclusion assay and read with the Vi-Cell XR Cell Viability Analyzer (Beckman Coulter; Brea, CA). NHAs were plated at 50,000 cells/well into 12-well plates and allowed to adhere overnight. The following day, NHAs were treated with the LSD1 inhibitors. After 5 days, the cells were detached using TrypLE and assessed with the trypan blue dye exclusion assay.
The alamarBlue cell viability (Bio-Rad; Hercules, CA) was performed on the MDA-GSCs according to the manufacturer’s protocol. The cells were plated at 5,000 cell/well into a 96-well plate and allowed to grow for 5 days. After 5 days, the alamarBlue reagent was added and fluorescence was measured with the Synergy 2 (BioTek Instruments; Winooski, VT) plate reader according to the manufacturer’s protocol.

Take `c1ccc([C@@H]2C[C@H]2NC2CCNCC2)cc1` [GSK-LSD1]: the “expression of candidate gene set in brain tissue” value with brain tissue was “three of the four genes, except for FAM213A, were upregulated”. Further, the IC50 in the test with MDA-GSC 20 is more than 750 µM.
